Reference: publication PMC4457528, “Identification of Novel Small Molecule Inhibitors of Oncogenic RET Kinase” (PLoS ONE, 2015)
Read-outs that look alike come from different tables or passages of the source.

How the values were obtained:
Test in all cases: KinomeScan kinase panel, single concentration 10 µM
Type in all cases: binding
[1] = target: T1, KinomeScan kinase panel (Homo sapiens, UniProt P10721, V559D/V654A); conditions: KIT(V559D.V654A), 10 µM; read-out: score (%)
T1 construct: purchased DiscoveRx (KinomeScan)

[2] = target: T2, KinomeScan kinase panel (Homo sapiens, UniProt P00519, F317I); conditions: 10 µM, read-out: score (%)
T2 construct: purchased DiscoveRx (KinomeScan)

[3] = target: T3, KinomeScan kinase panel (Homo sapiens, UniProt Q12866); conditions: MERTK, 10 µM; read-out: score (%)
T3 construct: purchased DiscoveRx (KinomeScan)
T3 sequence (Q12866 21-999): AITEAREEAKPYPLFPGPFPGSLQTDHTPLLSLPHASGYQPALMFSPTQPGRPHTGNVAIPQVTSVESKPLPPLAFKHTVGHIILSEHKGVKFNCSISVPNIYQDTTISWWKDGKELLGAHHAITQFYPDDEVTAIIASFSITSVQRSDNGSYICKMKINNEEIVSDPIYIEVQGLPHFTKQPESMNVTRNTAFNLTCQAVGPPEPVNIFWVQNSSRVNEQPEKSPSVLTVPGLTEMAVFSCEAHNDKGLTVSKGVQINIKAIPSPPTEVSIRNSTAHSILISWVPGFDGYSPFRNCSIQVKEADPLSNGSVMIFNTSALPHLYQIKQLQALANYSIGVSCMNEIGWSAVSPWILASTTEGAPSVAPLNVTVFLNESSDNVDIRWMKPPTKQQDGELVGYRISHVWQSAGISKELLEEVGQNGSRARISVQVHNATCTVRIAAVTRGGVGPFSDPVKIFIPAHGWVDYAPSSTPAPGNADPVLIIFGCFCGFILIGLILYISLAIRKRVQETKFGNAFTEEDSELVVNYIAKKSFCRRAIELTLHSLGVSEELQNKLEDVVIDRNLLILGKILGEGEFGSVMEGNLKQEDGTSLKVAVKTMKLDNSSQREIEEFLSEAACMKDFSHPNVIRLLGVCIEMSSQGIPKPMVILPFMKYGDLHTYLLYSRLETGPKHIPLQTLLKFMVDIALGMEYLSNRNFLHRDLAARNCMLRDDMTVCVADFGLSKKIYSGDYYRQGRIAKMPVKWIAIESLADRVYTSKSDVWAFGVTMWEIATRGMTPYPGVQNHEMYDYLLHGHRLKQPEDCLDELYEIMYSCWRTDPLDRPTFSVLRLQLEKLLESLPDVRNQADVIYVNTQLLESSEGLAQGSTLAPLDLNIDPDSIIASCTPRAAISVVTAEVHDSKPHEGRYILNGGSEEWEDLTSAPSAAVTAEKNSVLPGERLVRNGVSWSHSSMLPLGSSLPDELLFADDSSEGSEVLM

[4] = target: T4, KinomeScan kinase panel (Homo sapiens, UniProt P09769); conditions: FGR, 10 µM; read-out: score (%)
T4 construct: purchased DiscoveRx (KinomeScan)

[5] = target: T5, KinomeScan kinase panel (Homo sapiens, UniProt Q02750); conditions: MEK1, 10 µM; read-out: score (%)
T5 construct: purchased DiscoveRx (KinomeScan)

[6] = target: T6, KinomeScan kinase panel (Homo sapiens, UniProt P49759); conditions: CLK1, 10 µM; read-out: score (%)
T6 construct: purchased DiscoveRx (KinomeScan)

[7] = target: T7, KinomeScan kinase panel (Homo sapiens, UniProt O96017); conditions: CHEK2, 10 µM; read-out: score (%)
T7 construct: purchased DiscoveRx (KinomeScan)

[8] = target: T8, KinomeScan kinase panel (Homo sapiens, UniProt Q86UE8); conditions: read-out: score (%)
T8 construct: purchased DiscoveRx (KinomeScan)

[9] = target: T9, KinomeScan kinase panel (Homo sapiens, UniProt Q9NSY1); conditions: BIKE, 10 µM; read-out: score (%)
T9 construct: purchased DiscoveRx (KinomeScan)

[10] = target: T10, KinomeScan kinase panel (Homo sapiens, UniProt P22607); conditions: FGFR3, 10 µM; read-out: score (%)
T10 construct: purchased DiscoveRx (KinomeScan)

[11] = target: T11, KinomeScan kinase panel (Homo sapiens, UniProt Q9UF33); conditions: EPHA6, 10 µM; read-out: score (%)
T11 construct: purchased DiscoveRx (KinomeScan)
T11 sequence (Q9UF33 23-1036): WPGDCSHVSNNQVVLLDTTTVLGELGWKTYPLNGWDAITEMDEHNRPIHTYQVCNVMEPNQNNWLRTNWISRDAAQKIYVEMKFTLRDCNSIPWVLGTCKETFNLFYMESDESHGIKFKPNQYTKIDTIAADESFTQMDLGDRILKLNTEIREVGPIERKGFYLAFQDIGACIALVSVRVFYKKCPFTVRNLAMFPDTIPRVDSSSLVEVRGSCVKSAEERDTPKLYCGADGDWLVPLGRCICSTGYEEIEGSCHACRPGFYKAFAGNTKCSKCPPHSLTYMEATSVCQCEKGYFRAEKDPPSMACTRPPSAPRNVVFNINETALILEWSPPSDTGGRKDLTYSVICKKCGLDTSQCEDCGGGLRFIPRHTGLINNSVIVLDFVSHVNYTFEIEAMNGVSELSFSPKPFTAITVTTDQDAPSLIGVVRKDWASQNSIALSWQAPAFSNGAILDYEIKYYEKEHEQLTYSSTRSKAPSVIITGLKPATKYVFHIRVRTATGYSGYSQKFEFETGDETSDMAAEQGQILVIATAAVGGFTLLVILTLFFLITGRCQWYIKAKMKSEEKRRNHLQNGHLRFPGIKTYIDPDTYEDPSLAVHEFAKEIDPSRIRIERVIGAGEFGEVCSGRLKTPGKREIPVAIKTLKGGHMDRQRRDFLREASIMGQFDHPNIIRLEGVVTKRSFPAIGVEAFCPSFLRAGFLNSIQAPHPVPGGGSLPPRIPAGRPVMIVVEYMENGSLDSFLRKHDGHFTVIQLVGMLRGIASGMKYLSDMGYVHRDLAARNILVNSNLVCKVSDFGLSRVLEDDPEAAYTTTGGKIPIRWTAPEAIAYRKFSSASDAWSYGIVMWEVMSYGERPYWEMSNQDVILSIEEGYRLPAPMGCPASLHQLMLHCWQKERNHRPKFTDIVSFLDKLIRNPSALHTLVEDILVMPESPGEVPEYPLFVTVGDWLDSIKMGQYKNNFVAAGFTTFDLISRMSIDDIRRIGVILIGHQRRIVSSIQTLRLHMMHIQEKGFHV

[12] = target: T12, KinomeScan kinase panel (Homo sapiens, UniProt Q15375); conditions: EPHA7, 10 µM; read-out: score (%)
T12 construct: purchased DiscoveRx (KinomeScan)

[13] = target: T13, KinomeScan kinase panel (Homo sapiens, UniProt O00750); conditions: PIK3C2B, 10 µM; read-out: score (%)
T13 construct: purchased DiscoveRx (KinomeScan)
T13 sequence (O00750 whole entry): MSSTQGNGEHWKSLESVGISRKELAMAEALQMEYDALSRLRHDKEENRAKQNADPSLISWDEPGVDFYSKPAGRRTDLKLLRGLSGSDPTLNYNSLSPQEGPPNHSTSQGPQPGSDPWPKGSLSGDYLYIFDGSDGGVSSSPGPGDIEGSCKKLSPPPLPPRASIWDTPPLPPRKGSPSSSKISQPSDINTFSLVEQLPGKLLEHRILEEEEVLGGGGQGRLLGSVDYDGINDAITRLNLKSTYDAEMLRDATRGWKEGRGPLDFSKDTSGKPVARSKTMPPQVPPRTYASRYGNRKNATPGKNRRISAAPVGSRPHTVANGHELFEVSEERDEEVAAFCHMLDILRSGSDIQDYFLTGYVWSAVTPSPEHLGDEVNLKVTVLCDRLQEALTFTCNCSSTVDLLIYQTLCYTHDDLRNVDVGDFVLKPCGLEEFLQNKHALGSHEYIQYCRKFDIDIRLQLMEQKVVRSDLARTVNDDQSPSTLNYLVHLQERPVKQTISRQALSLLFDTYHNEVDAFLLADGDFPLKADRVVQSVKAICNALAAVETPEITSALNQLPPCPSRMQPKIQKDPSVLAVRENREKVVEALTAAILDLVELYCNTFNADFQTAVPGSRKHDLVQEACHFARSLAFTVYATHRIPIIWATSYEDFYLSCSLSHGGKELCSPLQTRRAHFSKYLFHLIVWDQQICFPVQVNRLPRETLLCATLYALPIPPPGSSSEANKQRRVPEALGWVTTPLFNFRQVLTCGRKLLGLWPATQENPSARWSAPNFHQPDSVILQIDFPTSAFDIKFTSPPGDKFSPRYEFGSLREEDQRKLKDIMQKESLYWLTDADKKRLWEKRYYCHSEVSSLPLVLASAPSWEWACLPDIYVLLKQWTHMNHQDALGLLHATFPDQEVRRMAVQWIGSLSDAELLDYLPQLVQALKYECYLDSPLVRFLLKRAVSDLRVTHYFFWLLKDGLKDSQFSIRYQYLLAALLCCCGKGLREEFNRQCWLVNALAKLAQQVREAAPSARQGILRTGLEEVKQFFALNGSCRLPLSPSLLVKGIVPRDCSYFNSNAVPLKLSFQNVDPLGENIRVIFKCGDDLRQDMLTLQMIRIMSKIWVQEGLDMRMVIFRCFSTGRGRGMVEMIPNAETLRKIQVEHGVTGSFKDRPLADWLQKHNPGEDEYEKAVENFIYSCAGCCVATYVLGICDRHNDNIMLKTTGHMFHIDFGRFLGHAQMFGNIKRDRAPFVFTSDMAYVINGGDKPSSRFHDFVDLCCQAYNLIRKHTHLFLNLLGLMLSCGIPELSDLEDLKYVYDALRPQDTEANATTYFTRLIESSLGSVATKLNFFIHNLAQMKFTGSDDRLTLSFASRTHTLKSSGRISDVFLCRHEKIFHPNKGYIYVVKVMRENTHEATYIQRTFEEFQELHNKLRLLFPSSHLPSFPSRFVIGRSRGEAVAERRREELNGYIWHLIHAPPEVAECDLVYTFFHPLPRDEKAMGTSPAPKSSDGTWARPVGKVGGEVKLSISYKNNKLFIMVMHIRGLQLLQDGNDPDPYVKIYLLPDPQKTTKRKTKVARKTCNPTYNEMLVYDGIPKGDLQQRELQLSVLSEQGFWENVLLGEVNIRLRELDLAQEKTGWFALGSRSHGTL

T8 sequence (Q86UE8 whole entry): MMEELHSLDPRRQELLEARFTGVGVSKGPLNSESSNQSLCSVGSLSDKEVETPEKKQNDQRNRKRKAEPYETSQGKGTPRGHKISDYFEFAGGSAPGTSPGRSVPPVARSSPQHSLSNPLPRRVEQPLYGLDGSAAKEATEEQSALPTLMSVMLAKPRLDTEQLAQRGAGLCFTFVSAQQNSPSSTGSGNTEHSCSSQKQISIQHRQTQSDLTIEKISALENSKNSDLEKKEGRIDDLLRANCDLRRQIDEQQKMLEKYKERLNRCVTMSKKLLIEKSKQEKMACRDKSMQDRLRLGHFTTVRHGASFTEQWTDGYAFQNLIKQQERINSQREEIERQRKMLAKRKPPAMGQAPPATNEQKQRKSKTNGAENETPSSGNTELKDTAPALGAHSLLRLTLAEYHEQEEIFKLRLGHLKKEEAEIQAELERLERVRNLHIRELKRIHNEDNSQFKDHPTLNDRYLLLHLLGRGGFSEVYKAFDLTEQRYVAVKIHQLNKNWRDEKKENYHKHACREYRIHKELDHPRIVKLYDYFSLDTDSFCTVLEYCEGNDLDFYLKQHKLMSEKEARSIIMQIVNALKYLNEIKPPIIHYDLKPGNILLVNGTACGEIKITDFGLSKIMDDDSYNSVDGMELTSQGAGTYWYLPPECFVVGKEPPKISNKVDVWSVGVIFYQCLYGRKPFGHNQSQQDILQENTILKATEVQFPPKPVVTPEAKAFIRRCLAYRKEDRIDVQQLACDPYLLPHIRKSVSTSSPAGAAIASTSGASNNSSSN
T7 sequence (O96017 whole entry): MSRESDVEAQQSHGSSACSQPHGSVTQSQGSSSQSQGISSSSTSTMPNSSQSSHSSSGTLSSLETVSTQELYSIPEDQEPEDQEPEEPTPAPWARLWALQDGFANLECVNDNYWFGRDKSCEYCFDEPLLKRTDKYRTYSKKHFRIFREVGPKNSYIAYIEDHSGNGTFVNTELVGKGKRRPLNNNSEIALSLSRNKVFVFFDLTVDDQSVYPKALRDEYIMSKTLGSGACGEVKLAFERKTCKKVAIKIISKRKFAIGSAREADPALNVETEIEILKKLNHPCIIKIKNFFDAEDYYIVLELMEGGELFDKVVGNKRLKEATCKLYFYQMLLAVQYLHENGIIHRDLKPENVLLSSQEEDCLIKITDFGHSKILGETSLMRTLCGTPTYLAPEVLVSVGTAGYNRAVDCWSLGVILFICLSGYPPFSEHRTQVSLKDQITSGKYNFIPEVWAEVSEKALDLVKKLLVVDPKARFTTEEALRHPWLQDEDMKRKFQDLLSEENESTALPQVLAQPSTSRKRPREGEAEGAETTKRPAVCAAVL
T1 sequence (P10721 26-976 V559D/V654A): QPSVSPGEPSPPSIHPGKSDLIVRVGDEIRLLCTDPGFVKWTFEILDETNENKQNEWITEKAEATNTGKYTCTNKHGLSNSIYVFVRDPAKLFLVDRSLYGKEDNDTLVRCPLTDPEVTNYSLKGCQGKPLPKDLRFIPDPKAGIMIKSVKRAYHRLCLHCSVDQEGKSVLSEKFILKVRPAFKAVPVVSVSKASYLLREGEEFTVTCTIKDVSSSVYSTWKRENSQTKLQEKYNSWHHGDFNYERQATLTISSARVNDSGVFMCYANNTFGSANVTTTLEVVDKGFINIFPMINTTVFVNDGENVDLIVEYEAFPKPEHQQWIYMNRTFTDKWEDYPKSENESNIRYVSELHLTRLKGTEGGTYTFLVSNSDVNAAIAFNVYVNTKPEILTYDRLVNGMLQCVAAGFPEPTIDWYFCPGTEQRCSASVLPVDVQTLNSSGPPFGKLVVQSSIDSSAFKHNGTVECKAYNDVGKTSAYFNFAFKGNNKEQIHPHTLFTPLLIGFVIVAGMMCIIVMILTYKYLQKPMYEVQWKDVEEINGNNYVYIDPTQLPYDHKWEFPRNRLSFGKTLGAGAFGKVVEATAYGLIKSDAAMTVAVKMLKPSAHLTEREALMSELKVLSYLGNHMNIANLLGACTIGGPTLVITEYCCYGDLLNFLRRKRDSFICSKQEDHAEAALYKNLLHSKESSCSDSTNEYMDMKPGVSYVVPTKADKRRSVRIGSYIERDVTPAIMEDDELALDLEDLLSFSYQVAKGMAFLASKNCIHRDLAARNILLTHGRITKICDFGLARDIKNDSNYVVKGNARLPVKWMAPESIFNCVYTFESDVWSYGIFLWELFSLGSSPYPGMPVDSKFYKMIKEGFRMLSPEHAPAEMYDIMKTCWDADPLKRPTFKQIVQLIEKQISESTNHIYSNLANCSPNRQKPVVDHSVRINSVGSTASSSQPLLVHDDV
T9 sequence (Q9NSY1 whole entry): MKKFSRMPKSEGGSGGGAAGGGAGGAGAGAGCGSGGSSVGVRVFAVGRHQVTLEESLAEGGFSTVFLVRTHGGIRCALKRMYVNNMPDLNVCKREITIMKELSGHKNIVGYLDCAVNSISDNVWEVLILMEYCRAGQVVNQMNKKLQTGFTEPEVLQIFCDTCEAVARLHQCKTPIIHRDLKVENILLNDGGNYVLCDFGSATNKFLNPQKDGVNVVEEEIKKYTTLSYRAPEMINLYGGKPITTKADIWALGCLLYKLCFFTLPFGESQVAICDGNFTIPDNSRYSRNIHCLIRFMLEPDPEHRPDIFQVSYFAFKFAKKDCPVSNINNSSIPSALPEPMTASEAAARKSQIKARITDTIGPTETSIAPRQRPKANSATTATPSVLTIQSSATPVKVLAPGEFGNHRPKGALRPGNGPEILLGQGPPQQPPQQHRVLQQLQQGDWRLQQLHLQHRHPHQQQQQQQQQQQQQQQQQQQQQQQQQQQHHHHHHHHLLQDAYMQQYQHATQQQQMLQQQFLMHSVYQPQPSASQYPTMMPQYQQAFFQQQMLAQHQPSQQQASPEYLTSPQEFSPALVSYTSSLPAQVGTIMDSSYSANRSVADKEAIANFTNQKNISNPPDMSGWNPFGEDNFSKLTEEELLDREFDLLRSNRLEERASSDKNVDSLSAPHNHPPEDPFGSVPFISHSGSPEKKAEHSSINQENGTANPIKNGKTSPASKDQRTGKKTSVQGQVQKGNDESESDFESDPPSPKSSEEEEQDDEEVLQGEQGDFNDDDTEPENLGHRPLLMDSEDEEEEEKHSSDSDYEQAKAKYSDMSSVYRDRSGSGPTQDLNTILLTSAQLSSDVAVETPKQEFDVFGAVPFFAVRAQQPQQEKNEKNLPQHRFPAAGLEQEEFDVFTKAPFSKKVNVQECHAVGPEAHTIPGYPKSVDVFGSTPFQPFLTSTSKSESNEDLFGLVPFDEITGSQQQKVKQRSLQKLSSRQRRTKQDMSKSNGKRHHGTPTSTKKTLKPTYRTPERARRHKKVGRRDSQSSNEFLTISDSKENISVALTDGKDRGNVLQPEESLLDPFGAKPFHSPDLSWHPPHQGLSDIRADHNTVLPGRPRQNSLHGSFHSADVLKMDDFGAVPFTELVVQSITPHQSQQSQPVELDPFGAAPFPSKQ

remaining binding at 10 µM ([8]; TLK2, 10 µM)	Compound	remaining binding at 10 µM [1]	remaining binding at 10 µM ([2]; ABL1(F317I))	remaining binding at 10 µM [3]	remaining binding at 10 µM [4]	remaining binding at 10 µM [5]	remaining binding at 10 µM [6]	remaining binding at 10 µM [7]	remaining binding at 10 µM ([8]; kinase TLK2, 10 µM)	remaining binding at 10 µM [9]	remaining binding at 10 µM [10]	remaining binding at 10 µM [11]	remaining binding at 10 µM [12]	remaining binding at 10 µM [13]	remaining binding at 10 µM ([2]; ABL1(F317I)-nonphosphorylated)	remaining binding at 10 µM ([2]; ABL1(F317I)-phosphorylated)
–	CCN1CCN(Cc2ccc(NC(=O)c3ccc(C)c(NC(=O)c4cncc(-c5cccs5)c4)c3)cc2C(F)(F)F)CC1 [ALW-II-41-27]	5.4%	0.2%	> 30%	0.2%	> 30%	1.1%	> 30%	> 30%	> 30%	> 30%	28%	> 30%	> 30%	–	–
> 30%	CCN1CCN(Cc2ccc(NC(=O)c3ccc(C)c(/C=C/c4cnc5[nH]ccc5c4Cl)c3)cc2C(F)(F)F)CC1 [HG-6-63-01, (E)-3-(2-(4-chloro-1H-pyrrolo[2,3-b]pyridin-5-yl)vinyl)-N-(4-((4-ethylpiperazin-1-yl)methyl)-3-(trifluoromethyl)phenyl)-4-methylbenzamide]	0.9%	0.05%	> 30%	0.35%	> 30%	27%	> 30%	–	1.2%	2.4%	6.7%	> 30%	> 30%	–	–
–	CCN1CCN(Cc2ccc(NC(=O)c3ccc(C)c(C#Cc4cccnc4)c3)cc2C(F)(F)F)CC1 [XMD15-44]	4.2%	–	5.2%	0%	> 30%	3.9%	> 30%	100%	> 30%	0.3%	0%	0.55%	100%	8.8%	4%
